Assay results reported in patent US4285949A, “Vincamine derivatives, their preparation and therapeutical use” (Omnichem Societe Anonyme, priority 1978, dated 1981).

How the values were obtained:
[1] = test system: mice; test: Hypobaric anoxia test on mice; format: in vivo, mice (Charles River stock); conditions: intragastric, 15 minutes before; for Survival time: 190 mm Hg (5.25% oxygen), control 39 (±2); for Survival time Variation %: 190 mm Hg, increase vs control animals
Procedure: Charles River stock mice of the same sex, weighing about 20±2 g are shared into three lots of 10 animals each. The lots 1 and 2 comprise treated animals, i.e. those having received either a substance to be tested or vincamine, together with solvent, at 1 ml/100 g of body weight. The third lot comprises control animals i.e. those having only received solvent at 1 ml/100 g of body weight.
The compounds examined are administered by intragastric route 15 minutes before the experiment.
The animals are placed in an atmosphere impoverished in oxygen by creating a partial vacuum (190 mm Hg, corresponding to 5.25% oxygen), in about 30 seconds.
The survival time of the mice is measured with a chronometer. Said time is increased by the agents capable of enhancing oxygenation of tissues and more particularly brain oxygenation. The percentages of survival time increase with respect to the values obtained for the control animals are calculated.
The doses were selected to obtain a 50-70% increase of the survival time of the animals under the experimental conditions.

[2] = Acute toxicity, LD50 by intravenous route in mice (Lichtfield and Wilcoxon); conditions: mouse, in vivo
Procedure: The compounds of the invention as well as vincamine were administered by intravenous route to Charles River stock mice. The 50% lethal doses (LD50) where determined graphically according to the method of Lichtfield and Wilcoxon (J. Pharmacol. Exp. Therap. […], 96, 99).

Compound | Survival time ([1]; 30 mg/kg) | Survival time Variation % ([1]; 30 mg/kg) | LD50 ([2]; iv) [mg/kg] | Survival time ([1]; 20 mg/kg) | Survival time Variation % ([1]; 20 mg/kg) | Survival time ([1]; 200 mg/kg) | Survival time Variation % ([1]; 200 mg/kg) | LD50 ([2]; mice, intravenous) [mg/kg]
CC[C@]12C=CCN3CCc4c(n(c5ccc(Cl)cc45)[C@](O)(C(=O)OC)C1)[C@@H]32 [OC-231 E, 10-Chloro-16-epiΔ14-vincamine] | 62 (±6) | +55% | 47 |  |  |  |  | 
CC[C@]12C=CCN3CCc4c(n(c5ccc(Cl)cc45)[C@@](O)(C(=O)OC)C1)[C@@H]32 [OC-231 N, 10-Chloro-Δ14-vincamine] | 60 (±1) | +53% | 47 |  |  |  |  | 
CC[C@]12C=CCN3CCc4c(n(c5ccc(Cl)cc45)C(C(=O)OC)=C1)[C@@H]32 [OC-233, 10-Chloro-apo-Δ14-vincamine] |  |  | 52 | 57 (±4) | +46% |  |  | 
CC[C@]12CCCN3CCc4c(n(c5ccccc45)[C@@](O)(C(=O)OC)C1)[C@@H]32 [Vincamine] |  |  |  |  |  | 58 (±4) | +49% | 47
